Like-named read-outs stand apart in the source and are kept apart here.
Tests used:
[1] = system: Glomerella lagenarium (Colletotrichum lagenarium); test: Glomerella lagenarium (Colletotrichum lagenarium) / liquid culture (anthracnose); format: cell-based; settings: Colletotrichum orbiculare, read-out: control of Glomerella lagenarium
[2] = system: Botryotinia fuckeliana (Botrytis cinerea); test: Botryotinia fuckeliana (Botrytis cinerea) / liquid culture (gray mould); format: cell-based; settings: 72 h, read-out: control of Botryotinia fuckeliana
Fusarium culmorum [3] = test: microbe, parasite or virus in culture; format: cell-based; settings: read-out: control of Fusarium culmorum
[4] = system: Magnaporthe grisea (Pyricularia oryzae); test: microbe, parasite or virus in culture; format: cell-based; settings: 72 h, read-out: control of Magnaporthe grisea
Sclerotinia sclerotiorum = Sclerotinia sclerotiorum / liquid culture (cottony rot); settings: 72 h, read-out: control of Sclerotinia sclerotiorum
Protocol: Sclerotinia sclerotiorum/Liquid Culture (Cottony Rot)
Mycelia fragments of a newly grown liquid culture of the fungus are directly mixed into nutrient broth (Vogels broth). After placing a (DMSO) solution of test compound into a microtiter plate (96-well format) the nutrient broth containing the fungal material is added. The test plates are incubated at 24° C. and the inhibition of growth is determined photometrically 3-4 days after application.

[5] = system: Monographella nivalis (Microdochium nivale); test: Monographella nivalis (Microdochium nivale) / liquid culture (foot rot cereals); format: cell-based; settings: 96 h, inhibition of growth photometrically 4-5 days after application, compared to untreated control
Fusarium culmorum [6] = test: whole plant or invertebrate; format: in vivo, Fusarium culmorum on wheat spikelets cv. Monsun; settings: in Triticum aestivum, read-out: control of Fusarium culmorum
[7] = 20 ppm, liquid culture, inhibition of growth photometrically 3-4 days after application, compared to untreated control

SMILES	melting point	inhibition of growth at 20 ppm [1]	inhibition of growth at 20 ppm [2]	inhibition of growth at 20 ppm (Fusarium culmorum [3])	inhibition of growth at 20 ppm [4]	inhibition of growth at 20 ppm (Sclerotinia sclerotiorum)	inhibition of growth at 20 ppm [1, 7]	inhibition of growth at 20 ppm [2, 7]	inhibition of growth at 20 ppm [5]	pest or weed control at 200 ppm (Fusarium culmorum [6])
C/C(=C\c1ccccc1)CC(C)(C)NC(=O)c1cc2cccc(F)c2nc1C	108 to 110 °C									
CCCCCC(C)(C)NC(=O)c1cnc2c(F)cccc2c1 [E-1]		≥ 80%	≥ 80%	≥ 80%						
CC(C)CC(C)(CC(C)C)NC(=O)c1cnc2c(F)cccc2c1 [E-4]	139 to 142 °C			≥ 80%	≥ 80%	≥ 80%	≥ 80%	≥ 80%		
CC(C)(NC(=O)c1cnc2c(F)cccc2c1)C1CCCCC1 [E-7]				≥ 80%			≥ 80%	≥ 80%	≥ 80%	
CC(C)CC(C)(CCc1ccccc1)NC(=O)c1cnc2c(F)cccc2c1 (stereo not shown) [E-8]	170 to 175 °C			≥ 80%	≥ 80%	≥ 80%	≥ 80%	≥ 80%	≥ 80%	
CC1(CC(C)(CC(F)(F)F)NC(=O)c2cnc3c(F)cccc3c2)CC1 (stereo not shown) [E-10, 8-fluoro-N-[3,3,3-trifluoro-1-methyl-1-[(1-methylcyclopropyl)methyl]propyl]quinoline-3-carboxamide]	126 to 128 °C			≥ 80%	≥ 80%		≥ 80%	≥ 80%	≥ 80%	
CC(C)=CCC(C)(CC(C)C)NC(=O)c1cnc2c(F)cccc2c1 (stereo not shown) [E-11]	94 to 96 °C			≥ 80%	≥ 80%		≥ 80%	≥ 80%	≥ 80%	
C=C(C)CC(C)(CC(C)C)NC(=O)c1cnc2ccccc2c1 (stereo not shown) [E-12]	89 to 91 °C			≥ 80%	≥ 80%		≥ 80%	≥ 80%	≥ 80%	≥ 80%
CC(C)=CCC(C)(CC(C)C)NC(=O)c1cnc2ccccc2c1 (stereo not shown) [E-13]				≥ 80%	≥ 80%		≥ 80%	≥ 80%	≥ 80%	
CC(C)=C(C)CC(C)(CC(C)C)NC(=O)c1cnc2c(F)cccc2c1 (stereo not shown) [E-15]				≥ 80%	≥ 80%		≥ 80%	≥ 80%	≥ 80%	
CC(Cc1ccccc1)C(C)(C)NC(=O)c1cnc2c(F)cccc2c1 (stereo not shown) [E-16]				≥ 80%			≥ 80%	≥ 80%	≥ 80%	≥ 80%
CC(CC1CC1)(CC1CC1)NC(=O)c1cnc2c(F)cccc2c1 [E-17]	96 to 98 °C			≥ 80%	≥ 80%		≥ 80%	≥ 80%	≥ 80%	≥ 80%
CC(C)=C(F)CC(C)(CC(C)C)NC(=O)c1cnc2ccccc2c1 (stereo not shown) [E-19]	95 to 97 °C			≥ 80%	≥ 80%		≥ 80%	≥ 80%		≥ 80%
C=C(C)CC(COC)(CC(=C)C)NC(=O)c1cnc2c(F)cccc2c1 [E-20]	97 to 100 °C			≥ 80%	≥ 80%		≥ 80%	≥ 80%	≥ 80%	≥ 80%
CC(C)CC(C)CC(C)(C)NC(=O)c1cnc2c(F)cccc2c1 (stereo not shown) [E-22]				≥ 80%	≥ 80%		≥ 80%	≥ 80%	≥ 80%	
O=C(NC(CC1CC1)CC1CC1)c1cnc2c(F)cccc2c1 [E-24]	141 to 143 °C			≥ 80%	≥ 80%		≥ 80%	≥ 80%		
CC(CC1CC1)(CC1CC1)NC(=O)c1cnc2ccccc2c1 [E-26]	92 to 94 °C			≥ 80%			≥ 80%	≥ 80%	≥ 80%	≥ 80%
C/C(=C/c1ccccc1)CC(C)(C)NC(=O)c1cnc2c(F)cccc2c1C [E-28]	96 to 98 °C			≥ 80%				≥ 80%		
O=C(NC(CC1CC1)CC1CC1)c1cnc2ccccc2c1 [E-29]	123 to 125 °C			≥ 80%			≥ 80%	≥ 80%		

SMILES	melting point	inhibition of growth at 20 ppm [1]	inhibition of growth at 20 ppm [2]	inhibition of growth at 20 ppm (Fusarium culmorum [3])	inhibition of growth at 20 ppm [4]	inhibition of growth at 20 ppm (Sclerotinia sclerotiorum)	inhibition of growth at 20 ppm [1, 7]	inhibition of growth at 20 ppm [2, 7]	inhibition of growth at 20 ppm [5]	pest or weed control at 200 ppm (Fusarium culmorum [6])
COc1ccc(CCC(C)(C#N)NC(=O)c2cnc3c(F)cccc3c2)cc1 (stereo not shown) [E-30]	175 to 176 °C			≥ 80%			≥ 80%			
C/C(=C/c1ccccc1)CC(C)(C)NC(=O)c1cnc2c(F)cccc2c1 [E-31]	127 to 129 °C							≥ 80%	≥ 80%	
CC(C)CC=CCC(C)(C)NC(=O)c1cnc2c(F)c(F)ccc2c1 [E-33]				≥ 80%			≥ 80%	≥ 80%	≥ 80%	
CC(C)(C/C=C/c1ccccc1)NC(=O)c1cnc2c(F)c(F)ccc2c1 [E-34]				≥ 80%				≥ 80%	≥ 80%	
CC(C)CC(C)(C#N)NC(=O)c1cnc2c(F)cccc2c1 (stereo not shown) [E-35]	167 to 171 °C			≥ 80%						
C=CCC(C)(C)NC(=O)c1cnc2c(F)c(F)ccc2c1 [E-36]	116 to 119 °C			≥ 80%			≥ 80%	≥ 80%		
CCC(CC)CC(C)NC(=O)c1cnc2ccccc2c1 (stereo not shown) [E-38]				≥ 80%			≥ 80%	≥ 80%	≥ 80%	
CCC(CC)CC(C)NC(=O)c1cnc2c(C)cccc2c1 (stereo not shown) [E-39]				≥ 80%			≥ 80%	≥ 80%		
CCC(CC)CC(C)NC(=O)c1cnc2c(F)cccc2c1 (stereo not shown) [E-40]				≥ 80%			≥ 80%	≥ 80%	≥ 80%	
CCCC(C)CC(C)NC(=O)c1cnc2ccccc2c1 (stereo not shown) [E-41]				≥ 80%			≥ 80%	≥ 80%		
CCC(CC)CC(C)(CC(F)(F)F)NC(=O)c1cnc2ccccc2c1 (stereo not shown) [E-43]	93 to 95 °C			≥ 80%	≥ 80%		≥ 80%	≥ 80%		≥ 80%
CCC(CC)CC(C)(CC(F)(F)F)NC(=O)c1cnc2c(C)cccc2c1 (stereo not shown) [E-44]				≥ 80%	≥ 80%		≥ 80%	≥ 80%	≥ 80%	
CC(CC1CC=CCC1)NC(=O)c1cnc2ccccc2c1 (stereo not shown) [E-49]				≥ 80%			≥ 80%	≥ 80%		
Cc1cccc2cc(C(=O)NC(C)CC3CC=CCC3)cnc12 (stereo not shown) [E-50]				≥ 80%			≥ 80%	≥ 80%	≥ 80%	≥ 80%
CCCC(C)CC(C)NC(=O)c1cnc2c(F)cccc2c1 (stereo not shown) [E-51]				≥ 80%			≥ 80%	≥ 80%	≥ 80%	
CCCC(C)CC(C)(CC(F)(F)F)NC(=O)c1cnc2c(F)cccc2c1 (stereo not shown) [E-52]				≥ 80%	≥ 80%		≥ 80%	≥ 80%	≥ 80%	≥ 80%
Cc1cccc2cc(C(=O)NC(C)(CC3CC=CCC3)CC(F)(F)F)cnc12 (stereo not shown) [E-53]	112 to 114 °C			≥ 80%	≥ 80%	≥ 80%	≥ 80%	≥ 80%	≥ 80%	
CC(CC1CC=CCC1)(CC(F)(F)F)NC(=O)c1cnc2ccccc2c1 (stereo not shown) [E-55]	90 to 95 °C			≥ 80%	≥ 80%		≥ 80%	≥ 80%	≥ 80%	≥ 80%
CC(CC1CCCCC1)(CC(F)(F)F)NC(=O)c1cnc2ccccc2c1 (stereo not shown) [E-60]	70 to 87 °C			≥ 80%	≥ 80%		≥ 80%	≥ 80%	≥ 80%	≥ 80%

— patent US11185074B2, “Microbiocidal quinoline (thio)carboxamide derivatives” (SYNGENTA PARTICIPATIONS AG, priority 2017, dated 2021)
